Data reported in PubChem BioAssay AID248 (DTP/NCI, 2004).
Toxic doses and inconclusive results are not listed. Cut-off read from the data, not from the text of the source: active = T/C of 150% or more; inactive = T/C below 125%.

Test system: L1210 leukemia ip in BDF1 mice, survival T/C
Assay: NCI In Vivo Anticancer Drug Screen. Data for tumor model L1210 Leukemia (intraperitoneal) in B6D2F1 (BDF1) mice
Settings: endpoint: mean survival time, higher = longer survival
In short: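 Transplanted-tumor mice were given test agent; controls received vehicle only. Survival readings from the two groups were divided (treated over control).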

[1] = dose: 50.0 mg/kg/injection, schedule: Q01DX001 (ip), vehicle: saline
[2] = dose: 100.0 mg/kg/injection, schedule: Q01DX001 (ip), vehicle: saline
[3] = dose: 200.0 mg/kg/injection, schedule: Q01DX001 (ip), vehicle: saline
[4] = dose: 100.0 mg/kg/injection, schedule: Q01DX001 (ip), vehicle: saline with Tween-80
[5] = dose: 200.0 mg/kg/injection, schedule: Q01DX001 (ip), vehicle: saline with Tween-80
[6] = dose: 100.0 mg/kg/injection, schedule: Q04DX003 (ip), vehicle: saline with Tween-80
[7] = dose: 200.0 mg/kg/injection, schedule: Q04DX003 (ip), vehicle: saline with Tween-80
[8] = dose: 10.0 mg/kg/injection, schedule: Q04DX003 (ip), vehicle: saline
[9] = dose: 20.0 mg/kg/injection, schedule: Q04DX003 (ip), vehicle: saline

Measured: T/C

S=C([SH2+])[SH2+].S=C([SH2+])[SH2+].[Pt+2].c1ccc(C[P+](c2ccccc2)(c2ccccc2)c2ccccc2)cc1
inactive: dose: 12.5 mg/kg/injection, schedule: Q01DX009 (ip), vehicle: saline 96 % of control | dose: 25.0 mg/kg/injection, schedule: Q01DX009 (ip), vehicle: saline 97 % of control

CCSC(=N)N=Nc1ccc(O)cc1
inactive: [1] 104 % of control | [2] 98 % of control | [3] 102 % of control

O=[N+]([O-])c1cccc(-c2nc3ncncc3[nH]2)c1
inactive: dose: 50.0 mg/kg/injection, schedule: Q01DX001 (ip), vehicle: saline with Tween-80 102 % of control | [4] 101 % of control | [5] 98 % of control

Cc1ccc(S(=O)(=O)N(C)c2ccc(C#N)c(Cl)c2Cl)cc1
inactive: [6] 98 % of control | [7] 96 % of control | dose: 400.0 mg/kg/injection, schedule: Q04DX003 (ip), vehicle: saline with Tween-80 98 % of control

COc1ccccc1CNC1CCCCC1
inactive: dose: 75.0 mg/kg/injection, schedule: Q01DX001 (ip), vehicle: saline 92 % of control

O=[N+]([O-])c1ccc(Oc2ccc(F)cc2)c([N+](=O)[O-])c1
inactive: [1] 103 % of control | [2] 103 % of control | [3] 97 % of control | dose: 400.0 mg/kg/injection, schedule: Q01DX001 (ip), vehicle: saline 105 % of control

CCOC(=O)c1oc(C)nc1C
inactive: dose: 100.0 mg/kg/injection, schedule: Q01DX001 (ip), vehicle: Klucel (hydroxypropylcellulose) (HPC) 122 % of control | dose: 200.0 mg/kg/injection, schedule: Q01DX001 (ip), vehicle: Klucel (hydroxypropylcellulose) (HPC) 97 % of control | dose: 400.0 mg/kg/injection, schedule: Q01DX001 (ip), vehicle: Klucel (hydroxypropylcellulose) (HPC) 101 % of control

C=CS(=O)(=O)c1ccc([N+](=O)[O-])cc1
inactive: dose: 6.25 mg/kg/injection, schedule: Q04DX002 (ip), vehicle: saline with Tween-80 92 % of control | dose: 12.5 mg/kg/injection, schedule: Q04DX002 (ip), vehicle: saline with Tween-80 101 % of control | dose: 25.0 mg/kg/injection, schedule: Q04DX002 (ip), vehicle: saline with Tween-80 94 % of control

O=S(=O)(CBr)N1CCOCC1
inactive: dose: 50.0 mg/kg/injection, schedule: Q04DX003 (ip), vehicle: saline with Tween-80 93 % of control | [6] 98 % of control | [7] 98 % of control

COC(=O)C1=NNCC1C(=O)N1Cc2cc3ccccc3nc2C1 (stereo unspecified)
inactive: [8] 103 % of control | [9] 99 % of control | dose: 40.0 mg/kg/injection, schedule: Q04DX003 (ip), vehicle: saline 103 % of control | dose: 80.0 mg/kg/injection, schedule: Q04DX003 (ip), vehicle: saline 92 % of control | dose: 160.0 mg/kg/injection, schedule: Q04DX003 (ip), vehicle: saline 97 % of control

Nc1ccn(Cc2ccccc2)c(=O)n1
inactive: dose: 75.0 mg/kg/injection, schedule: Q01DX001 (ip), vehicle: saline with Tween-80 95 % of control | dose: 150.0 mg/kg/injection, schedule: Q01DX001 (ip), vehicle: saline with Tween-80 94 % of control | dose: 300.0 mg/kg/injection, schedule: Q01DX001 (ip), vehicle: saline with Tween-80 95 % of control

CC(=O)OC(COS(=O)(=O)c1ccc(C)cc1)C1OCOC(COS(=O)(=O)c2ccc(C)cc2)C1OC(C)=O (stereo unspecified)
inactive: [4] 92 % of control | [5] 93 % of control | dose: 400.0 mg/kg/injection, schedule: Q01DX001 (ip), vehicle: saline with Tween-80 95 % of control

CCOC(=O)C(C(=O)c1ccccc1)=P(c1ccccc1)(c1ccccc1)c1ccccc1
inactive: dose: 100.0 mg/kg/injection, schedule: Q04DX003 (ip), vehicle: Klucel (hydroxypropylcellulose) (HPC) 100 % of control | dose: 200.0 mg/kg/injection, schedule: Q04DX003 (ip), vehicle: Klucel (hydroxypropylcellulose) (HPC) 100 % of control | dose: 400.0 mg/kg/injection, schedule: Q04DX003 (ip), vehicle: Klucel (hydroxypropylcellulose) (HPC) 102 % of control

CC(S)CNCCSC(=O)c1ccccc1 (stereo unspecified)
inactive: dose: 100.0 mg/kg/injection, schedule: Q04DX003 (ip), vehicle: acetone 91 % of control | dose: 200.0 mg/kg/injection, schedule: Q04DX003 (ip), vehicle: acetone 102 % of control | dose: 400.0 mg/kg/injection, schedule: Q04DX003 (ip), vehicle: acetone 97 % of control

O=C(CCl)c1cnc2ccccc2n1
inactive: dose: 5.0 mg/kg/injection, schedule: Q01DX009 (ip), vehicle: saline 102 % of control | dose: 5.0 mg/kg/injection, schedule: Q04DX003 (ip), vehicle: saline 103 % of control | dose: 10.0 mg/kg/injection, schedule: Q01DX009 (ip), vehicle: saline 98 % of control | [8] 100 % of control | dose: 20.0 mg/kg/injection, schedule: Q01DX009 (ip), vehicle: saline 93 % of control | [9] 100 % of control

O=C(O)C1CC(c2ccccc2)C(=O)O1 (stereo unspecified)
inactive: dose: 100.0 mg/kg/injection, schedule: Q04DX002 (ip), vehicle: Klucel (hydroxypropylcellulose) (HPC) 100 % of control | dose: 200.0 mg/kg/injection, schedule: Q04DX002 (ip), vehicle: Klucel (hydroxypropylcellulose) (HPC) 100 % of control | dose: 400.0 mg/kg/injection, schedule: Q04DX002 (ip), vehicle: Klucel (hydroxypropylcellulose) (HPC) 96 % of control
